According to PubChem BioAssay (NCI):
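Protocol summary: plate cells (96-well), add compound at 5 concentrations, incubate 48 h, interpolate endpoints linearly. TGI is the concentration that stops growth completely.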

Columns and labels:
Assay in all cases: DTP human tumour cell line panel, 48 h
RXF 393 renal = test system: RXF 393 renal
NCI-H460 lung = test system: NCI-H460 lung
HS 578T breast = test system: HS 578T breast
UACC-257 melanoma = test system: UACC-257 melanoma
SN12C renal = test system: SN12C renal
HL-60(TB) leukemia = test system: HL-60(TB) leukemia
SF-295 CNS = test system: SF-295 CNS
NCI/ADR-RES ovarian = test system: NCI/ADR-RES ovarian
786-0 renal = test system: 786-0 renal
UACC-62 melanoma = test system: UACC-62 melanoma
SK-OV-3 ovarian = test system: SK-OV-3 ovarian
EKVX NSCLC = test system: EKVX NSCLC
K-562 leukemia = test system: K-562 leukemia
HOP-62 NSCLC = test system: HOP-62 NSCLC
COLO 205 colon = test system: COLO 205 colon
OVCAR-3 ovarian = test system: OVCAR-3 ovarian
OVCAR-5 ovarian = test system: OVCAR-5 ovarian
SR leukemia = test system: SR leukemia
SK-MEL-2 melanoma = test system: SK-MEL-2 melanoma
CCRF-CEM leukemia = test system: CCRF-CEM leukemia
ACHN renal = test system: ACHN renal
SNB-75 CNS = test system: SNB-75 CNS
BT-549 breast = test system: BT-549 breast
A549 NSCLC = test system: A549 NSCLC
MDA-N = test system: MDA-N
MDA-MB-435 = test system: MDA-MB-435
HCT-116 colon = test system: HCT-116 colon
IGROV1 ovarian = test system: IGROV1 ovarian
SF-268 CNS = test system: SF-268 CNS
TK-10 renal = test system: TK-10 renal
A498 renal = test system: A498 renal
PC-3 prostate = test system: PC-3 prostate
SF-539 CNS = test system: SF-539 CNS
MDA-MB-231 breast = test system: MDA-MB-231 breast
HT29 colon = test system: HT29 colon
SNB-19 CNS = test system: SNB-19 CNS
OVCAR-8 ovarian = test system: OVCAR-8 ovarian
NCI-H23 lung = test system: NCI-H23 lung
U251 CNS = test system: U251 CNS
SK-MEL-28 melanoma = test system: SK-MEL-28 melanoma
HCT-15 colon = test system: HCT-15 colon
OVCAR-4 ovarian = test system: OVCAR-4 ovarian
MOLT-4 leukemia = test system: MOLT-4 leukemia
M14 melanoma = test system: M14 melanoma
DU-145 prostate = test system: DU-145 prostate
KM12 colon = test system: KM12 colon
NCI-H522 lung = test system: NCI-H522 lung
UO-31 renal = test system: UO-31 renal
SW-620 colon = test system: SW-620 colon
LOX IMVI melanoma = test system: LOX IMVI melanoma
RPMI-8226 leukemia = test system: RPMI-8226 leukemia
MALME-3M melanoma = test system: MALME-3M melanoma
NCI-H226 lung = test system: NCI-H226 lung
MCF7 breast = test system: MCF7 breast
SK-MEL-5 melanoma = test system: SK-MEL-5 melanoma
CAKI-1 renal = test system: CAKI-1 renal
HOP-92 NSCLC = test system: HOP-92 NSCLC
T-47D breast = test system: T-47D breast
HCC-2998 colon = test system: HCC-2998 colon

C=C[C@@H](C)[C@H](NS(=O)(=O)c1ccc(C)cc1)C(=O)OCC
TGI (RXF 393 renal): > 100 µM
TGI (NCI-H460 lung): > 100 µM
TGI (HS 578T breast): 56.4 µM
TGI (UACC-257 melanoma): 71.5 µM
TGI (SN12C renal): > 100 µM
TGI (HL-60(TB) leukemia): > 100 µM
TGI (SF-295 CNS): 63.4 µM
TGI (NCI/ADR-RES ovarian): > 100 µM
TGI (786-0 renal): > 100 µM
TGI (UACC-62 melanoma): > 100 µM
TGI (SK-OV-3 ovarian): > 100 µM
TGI (EKVX NSCLC): > 100 µM
TGI (K-562 leukemia): > 100 µM
TGI (HOP-62 NSCLC): > 100 µM
TGI (COLO 205 colon): > 100 µM
TGI (OVCAR-3 ovarian): 43.1 µM
TGI (OVCAR-5 ovarian): > 100 µM
TGI (SR leukemia): > 100 µM
TGI (SK-MEL-2 melanoma): > 100 µM
TGI (CCRF-CEM leukemia): > 100 µM
TGI (ACHN renal): > 100 µM
TGI (SNB-75 CNS): 60.7 µM
TGI (BT-549 breast): > 100 µM
TGI (A549 NSCLC): > 100 µM
TGI (MDA-N): 83.6 µM
TGI (MDA-MB-435): 47.2 µM
TGI (HCT-116 colon): > 100 µM
TGI (IGROV1 ovarian): 77.3 µM
TGI (SF-268 CNS): > 100 µM
TGI (TK-10 renal): > 100 µM
TGI (A498 renal): > 100 µM
TGI (PC-3 prostate): > 100 µM
TGI (SF-539 CNS): > 100 µM
TGI (MDA-MB-231 breast): > 100 µM
TGI (HT29 colon): 59.9 µM
TGI (SNB-19 CNS): > 100 µM
TGI (OVCAR-8 ovarian): > 100 µM
TGI (NCI-H23 lung): > 100 µM
TGI (U251 CNS): 97.3 µM
TGI (SK-MEL-28 melanoma): > 100 µM
TGI (HCT-15 colon): > 100 µM
TGI (OVCAR-4 ovarian): > 100 µM
TGI (MOLT-4 leukemia): > 100 µM
TGI (M14 melanoma): > 100 µM
TGI (DU-145 prostate): > 100 µM
TGI (KM12 colon): > 100 µM
TGI (NCI-H522 lung): 57.5 µM
TGI (UO-31 renal): 96.1 µM
TGI (SW-620 colon): > 100 µM
TGI (LOX IMVI melanoma): 34.7 µM
TGI (RPMI-8226 leukemia): 35.5 µM
TGI (MALME-3M melanoma): > 100 µM
TGI (NCI-H226 lung): > 100 µM
TGI (MCF7 breast): 70.6 µM

O=C1C(Cl)=C(OCCCl)C(=O)c2c(O)ccc(O)c21
TGI (RXF 393 renal): 18.6 µM
TGI (NCI-H460 lung): 40.7 µM
TGI (UACC-257 melanoma): 8.01 µM
TGI (SN12C renal): 28 µM
TGI (HL-60(TB) leukemia): 0.197 µM
TGI (SF-295 CNS): 33.3 µM
TGI (NCI/ADR-RES ovarian): 69.1 µM
TGI (786-0 renal): 17.3 µM
TGI (UACC-62 melanoma): 14 µM
TGI (SK-OV-3 ovarian): 32.1 µM
TGI (EKVX NSCLC): 34.2 µM
TGI (K-562 leukemia): 1.08 µM
TGI (HOP-62 NSCLC): 30.4 µM
TGI (COLO 205 colon): 3.26 µM
TGI (OVCAR-3 ovarian): 10.9 µM
TGI (SK-MEL-5 melanoma): 6.91 µM
TGI (OVCAR-5 ovarian): 31.6 µM
TGI (SR leukemia): 0.397 µM
TGI (CCRF-CEM leukemia): 0.381 µM
TGI (ACHN renal): 10.4 µM
TGI (CAKI-1 renal): 3.93 µM
TGI (HOP-92 NSCLC): 3.12 µM
TGI (SNB-75 CNS): 26.3 µM
TGI (BT-549 breast): 26.9 µM
TGI (A549 NSCLC): 37.9 µM
TGI (T-47D breast): 4 µM
TGI (MDA-N): 7.37 µM
TGI (HCT-116 colon): 2.97 µM
TGI (IGROV1 ovarian): 19.7 µM
TGI (SF-268 CNS): 17.1 µM
TGI (TK-10 renal): 7.76 µM
TGI (A498 renal): 34.8 µM
TGI (PC-3 prostate): 26 µM
TGI (SF-539 CNS): 31.8 µM
TGI (MDA-MB-231 breast): 10.6 µM
TGI (HT29 colon): 12.5 µM
TGI (SNB-19 CNS): 32.7 µM
TGI (OVCAR-8 ovarian): 47.6 µM
TGI (NCI-H23 lung): 19.8 µM
TGI (U251 CNS): 27.9 µM
TGI (SK-MEL-28 melanoma): 12.5 µM
TGI (HCT-15 colon): 7.01 µM
TGI (OVCAR-4 ovarian): 5.46 µM
TGI (MOLT-4 leukemia): 0.619 µM
TGI (M14 melanoma): 4.19 µM
TGI (DU-145 prostate): 32.2 µM
TGI (KM12 colon): 40.5 µM
TGI (UO-31 renal): 11 µM
TGI (SW-620 colon): 9.9 µM
TGI (HCC-2998 colon): 35.4 µM
TGI (LOX IMVI melanoma): 12.4 µM
TGI (RPMI-8226 leukemia): 0.993 µM
TGI (MALME-3M melanoma): 7.53 µM
TGI (NCI-H226 lung): 30.7 µM
TGI (MCF7 breast): 5.19 µM
